Assay results taken from US20030225527A1, “Crystals and structures of MST3” (priority 2002, published 2003).
Where a name gives a salt, the structure may show the parent alone.

Biological target: T1, MST3 kinase domain (Homo sapiens, UniProt Q9Y6E0)
T1 construct: 5 μg/ml MST3 kinase domain; Met-Ser-Leu (vector-encoded residues) (N); Glu-Gly-His6 (C); made in house; host or cells: E. coli
Assay: MST3 kinase assay (PK/LDH-coupled, loss of NADH at 340 nm)
Type: biochemical
Details: purified MST3 kinase domain 5 μg/ml, 10 μM ATP, 400 μM MST3 peptide, 1 mM MnCl2

T1 sequence (Q9Y6E0 36-286 limits assumed): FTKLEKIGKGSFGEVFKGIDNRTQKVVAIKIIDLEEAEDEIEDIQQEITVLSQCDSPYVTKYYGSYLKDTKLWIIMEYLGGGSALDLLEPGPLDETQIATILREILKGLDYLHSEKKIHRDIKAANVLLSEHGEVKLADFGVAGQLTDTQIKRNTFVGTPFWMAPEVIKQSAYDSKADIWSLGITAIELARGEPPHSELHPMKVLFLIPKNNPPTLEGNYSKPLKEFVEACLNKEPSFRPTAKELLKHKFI

Row | SMILES | IC50 [µM]
1 | O=S(=O)(NCCNCC=Cc1ccc(Br)cc1)c1cccc2cnccc12 [H89, N-[2-(p-Bromocinnamylamino)ethyl]-5-isoquinolinesulfonamide.2HCl] | 30
2 | O=S(=O)(c1cccc2c(Cl)cccc12)N1CCCNCC1 [ML-9, 1-(5-Chloronaphthalene-1-sulfonyl)-1H-hexahydro-1,4-diazepine.HCl] | 18
